In US20250213505A1, “DEVICES AND METHODS FOR DELIVERING SYNERGISTIC ACTIVE AGENTS TO TARGET SITES” (priority 2023, published 2025):
Like-named read-outs stand apart in the source and are kept apart here.

Legend:
Assay type in all cases: cell-based
E. coli (ATCC BAA 1427) [1] = assay: Minimal bactericidal concentration, serial 2-fold dilution
Method: (§1) The minimal bactericidal concentration (MBC) of benzalkonium chloride was determined against S. aureus (ATCC 6538), P. aeruginosa (ATCC 15442), and E. coli (ATCC BAA 1427) by serial 2-fold dilution experiments. A solution of chlorhexidine (0.025% w/w) was used as a positive control and comparator.

S. aureus (ATCC 6538) [2] = assay: as above
Method: as §1

[3] = tested on: P. aeruginosa (ATCC 15442); assay: as above
Method: as §1

E. coli (ATCC BAA 1427) [4] = assay: Minimum inhibitory concentration / growth inhibition, serial 2-fold dilution
Method: as §1, with “inhibitory” for “bactericidal”, “(MIC, the minimum inhibitory concentration required for 90% growth reduction)” for “(MBC)”

S. aureus (ATCC 6538) [5] = assay: as above
Method: as §1, with “inhibitory” for “bactericidal”, “(MIC, the minimum inhibitory concentration required for 90% growth reduction)” for “(MBC)”

[6] = tested on: P. aeruginosa (ATCC 15442); assay: as above
Method: as §1, with “inhibitory” for “bactericidal”, “(MIC, the minimum inhibitory concentration required for 90% growth reduction)” for “(MBC)”

E. coli = assay: Chequerboard assay, FIC and synergy analysis; conditions: for MIC: Escherichia coli
Method: (§2) Chlorhexidine gluconate (CHG) and benzalkonium chloride (BZK) were analyzed by chequerboard assay with each test organism to determine potential additive, synergistic, antagonistic activity. The test organisms S. aureus, P. aeruginosa, and E. coli were tested at ranges of chlorhexidine gluconate (0.122-15.625 μg/mL, 1.25-160 μg/mL, and […], respectively) and benzalkonium chloride (0.029-3.75 μg/mL, 0.4688-60 μg/mL, and 0.2344-30 μg/mL, respectively). The results of the chequerboard experiment are shown in Table X. FIC was calculated by the following Equation 2: […]

P. aeruginosa = assay: Chequerboard assay, FIC and synergy analysis; conditions: for MIC: Pseudomonas aeruginosa
Method: as §2

S. aureus = assay: Chequerboard assay, FIC and synergy analysis; conditions: for MIC: Staphylococcus aureus
Method: as §2

[7] = concentration 250 μg/mL (0.025% w/w), positive control
[8] = concentration 250 μg/mL (0.025% w/w), positive control, listed as chlorhexidine
[9] = concentration 250 μg/mL, positive control
[10] = read-out: MIC of CHG in Presence of BZK
[11] = concentration 0.46875 μg/mL, average of triplicate
[12] = concentration 0.9375 μg/mL, average of triplicate
[13] = concentration 1.875 μg/mL, average of triplicate
[14] = concentration 3.75 μg/mL, average of triplicate
[15] = concentration 7.5 μg/mL, average of triplicate
[16] = concentration 15 μg/mL, average of triplicate
[17] = concentration 30 μg/mL, average of triplicate
[18] = concentration 60 μg/mL, average of triplicate
[19] = serial 2-fold dilution, triplicate
[20] = concentration 0.46875 μg/mL, triplicate
[21] = concentration 0.9375 μg/mL, triplicate
[22] = concentration 1.875 μg/mL, triplicate
[23] = concentration 3.75 μg/mL, triplicate
[24] = concentration 7.5 μg/mL, triplicate
[25] = concentration 15 μg/mL, triplicate
[26] = concentration 30 μg/mL, triplicate
[27] = concentration 60 μg/mL, triplicate

Compound: N=C(NCCCCCCNC(=N)NC(=N)Nc1ccc(Cl)cc1)NC(=N)Nc1ccc(Cl)cc1 [Chlorhexidine gluconate, 1-[amino-[6-[amino-[amino-(4-chlorophenyl)amino-methylidene]amino-methylidene]aminohexylimino]methyl]imino-N-(4-chlorophenyl)-methanediamine; (2R,3S,4R,5R)-2,3,4,5,6-pentahydroxyhexanoic acid.]
- Number of Colonies (E. coli (ATCC BAA 1427) [1]; [7]): 0
- Number of Colonies (E. coli (ATCC BAA 1427) [1]; [8]): no colonies
- CFU/mL (E. coli (ATCC BAA 1427) [1]; [9]): 0 CFU/mL
- Number of Colonies (S. aureus (ATCC 6538) [2]; [7]): 0
- Number of Colonies (S. aureus (ATCC 6538) [2]; [8]): no colonies
- CFU/mL (S. aureus (ATCC 6538) [2]; [9]): 0 CFU/mL
- Number of Colonies [3, 7]: 0
- Number of Colonies [3, 8]: no colonies
- CFU/mL [3, 9]: 0 CFU/mL
- inhibition at 250 µg/mL (E. coli (ATCC BAA 1427) [4]; Escherichia coli, BAA1427, concentration 250 μg/mL (0.025% w/w), positive control): 63%
- inhibition at 250 µg/mL (S. aureus (ATCC 6538) [5]; Staphylococcus aureus, ATCC6538, read-out: Average Growth Inhibition (%)): 121%
- inhibition at 250 µg/mL ([6]; Pseudomonas aeruginosa, ATCC15442, read-out: Average Growth Inhibition (%)): 81%
- MIC (E. coli; read-out: MIC of CHG Alone): 8 µg/mL
- MIC (E. coli; [10]): 4 µg/mL
- MIC (P. aeruginosa; read-out: MIC of CHG Alone (μg/mL)): 40 µg/mL
- MIC (P. aeruginosa; read-out: MIC of CHG in Presence of BZK (μg/mL)): 2.5 µg/mL
- MIC (S. aureus; read-out: MIC of CHG Alone): 1.95 µg/mL
- MIC (S. aureus; [10]): 0.977 µg/mL

Compound: Benzalkonium chloride
- CFU/mL (E. coli (ATCC BAA 1427) [1]; concentration 0.46875 μg/mL): Lawn
- Number of Colonies (E. coli (ATCC BAA 1427) [1]; [11]): Lawn (‘Lawn’ indicates too many colonies to accurately count (e.g., greater than 250 colonies on an agar plate))
- CFU/mL (E. coli (ATCC BAA 1427) [1]; concentration 0.9375 μg/mL): Lawn
- Number of Colonies (E. coli (ATCC BAA 1427) [1]; [12]): Lawn (‘Lawn’ indicates too many colonies to accurately count (e.g., greater than 250 colonies on an agar plate))
- CFU/mL (E. coli (ATCC BAA 1427) [1]; concentration 1.875 μg/mL): Lawn
- Number of Colonies (E. coli (ATCC BAA 1427) [1]; [13]): Lawn (‘Lawn’ indicates too many colonies to accurately count (e.g., greater than 250 colonies on an agar plate))
- CFU/mL (E. coli (ATCC BAA 1427) [1]; concentration 3.75 μg/mL): Lawn
- Number of Colonies (E. coli (ATCC BAA 1427) [1]; [14]): Lawn (‘Lawn’ indicates too many colonies to accurately count (e.g., greater than 250 colonies on an agar plate))
- CFU/mL (E. coli (ATCC BAA 1427) [1]; concentration 7.5 μg/mL): Lawn
- Number of Colonies (E. coli (ATCC BAA 1427) [1]; [15]): Lawn (‘Lawn’ indicates too many colonies to accurately count (e.g., greater than 250 colonies on an agar plate))
- CFU/mL (E. coli (ATCC BAA 1427) [1]; concentration 15 μg/mL): 0 CFU/mL
- Number of Colonies (E. coli (ATCC BAA 1427) [1]; [16]): 0
- CFU/mL (E. coli (ATCC BAA 1427) [1]; concentration 30 μg/mL): 0 CFU/mL
- Number of Colonies (E. coli (ATCC BAA 1427) [1]; [17]): 0
- CFU/mL (E. coli (ATCC BAA 1427) [1]; concentration 60 μg/mL): 0 CFU/mL
- Number of Colonies (E. coli (ATCC BAA 1427) [1]; [18]): 0
- MBC (defined as having less than 500 CFU/mL) (E. coli (ATCC BAA 1427) [1]; [19]): 15 µg/mL
- CFU/mL (S. aureus (ATCC 6538) [2]; concentration 0.46875 μg/mL): Lawn
- Number of Colonies (S. aureus (ATCC 6538) [2]; [11]): Lawn (‘Lawn’ indicates too many colonies to accurately count (e.g., greater than 250 colonies on an agar plate))
- CFU/mL (S. aureus (ATCC 6538) [2]; concentration 0.9375 μg/mL): Lawn
- Number of Colonies (S. aureus (ATCC 6538) [2]; [12]): Lawn (‘Lawn’ indicates too many colonies to accurately count (e.g., greater than 250 colonies on an agar plate))
- CFU/mL (S. aureus (ATCC 6538) [2]; concentration 1.875 μg/mL): 1133.3 CFU/mL
- Number of Colonies (S. aureus (ATCC 6538) [2]; [13]): 11.333
- CFU/mL (S. aureus (ATCC 6538) [2]; concentration 3.75 μg/mL): 1500 CFU/mL
- Number of Colonies (S. aureus (ATCC 6538) [2]; [14]): 15
- CFU/mL (S. aureus (ATCC 6538) [2]; concentration 7.5 μg/mL): 33.333 CFU/mL
- Number of Colonies (S. aureus (ATCC 6538) [2]; [15]): 0.333
- CFU/mL (S. aureus (ATCC 6538) [2]; concentration 15 μg/mL): 0 CFU/mL
- Number of Colonies (S. aureus (ATCC 6538) [2]; [16]): 0
- CFU/mL (S. aureus (ATCC 6538) [2]; concentration 30 μg/mL): 0 CFU/mL
- Number of Colonies (S. aureus (ATCC 6538) [2]; [17]): 0
- CFU/mL (S. aureus (ATCC 6538) [2]; concentration 60 μg/mL): 0 CFU/mL
- Number of Colonies (S. aureus (ATCC 6538) [2]; [18]): 0
- MBC (defined as having less than 500 CFU/mL) (S. aureus (ATCC 6538) [2]; [19]): 7.5 µg/mL
- CFU/mL ([3]; concentration 0.46875 μg/mL): Lawn
- Number of Colonies [3, 11]: Lawn (‘Lawn’ indicates too many colonies to accurately count (e.g., greater than 250 colonies on an agar plate))
- CFU/mL ([3]; concentration 0.9375 μg/mL): Lawn
- Number of Colonies [3, 12]: Lawn (‘Lawn’ indicates too many colonies to accurately count (e.g., greater than 250 colonies on an agar plate))
- CFU/mL ([3]; concentration 1.875 μg/mL): Lawn
- Number of Colonies [3, 13]: Lawn (‘Lawn’ indicates too many colonies to accurately count (e.g., greater than 250 colonies on an agar plate))
- CFU/mL ([3]; concentration 3.75 μg/mL): Lawn
- Number of Colonies [3, 14]: Lawn (‘Lawn’ indicates too many colonies to accurately count (e.g., greater than 250 colonies on an agar plate))
- CFU/mL ([3]; concentration 7.5 μg/mL): Lawn
- Number of Colonies [3, 15]: Lawn (‘Lawn’ indicates too many colonies to accurately count (e.g., greater than 250 colonies on an agar plate))
- CFU/mL ([3]; concentration 15 μg/mL): Lawn
- Number of Colonies [3, 16]: Lawn (‘Lawn’ indicates too many colonies to accurately count (e.g., greater than 250 colonies on an agar plate))
- CFU/mL ([3]; concentration 30 μg/mL): Lawn
- Number of Colonies [3, 17]: Lawn (‘Lawn’ indicates too many colonies to accurately count (e.g., greater than 250 colonies on an agar plate))
- CFU/mL ([3]; concentration 60 μg/mL): 166.67 CFU/mL
- Number of Colonies [3, 18]: 1.6667
- MBC (defined as having less than 500 CFU/mL) [3, 19]: 60 µg/mL
- Average Growth Inhibition (%) (E. coli (ATCC BAA 1427) [4]; [20]): 3%
- Average Growth Inhibition (%) (E. coli (ATCC BAA 1427) [4]; [21]): 5%
- Average Growth Inhibition (%) (E. coli (ATCC BAA 1427) [4]; [22]): 6%
- Average Growth Inhibition (%) (E. coli (ATCC BAA 1427) [4]; [23]): 7%
- Average Growth Inhibition (%) (E. coli (ATCC BAA 1427) [4]; [24]): 18%
- Average Growth Inhibition (%) (E. coli (ATCC BAA 1427) [4]; [25]): 100%
- Average Growth Inhibition (%) (E. coli (ATCC BAA 1427) [4]; [26]): 100%
- Average Growth Inhibition (%) (E. coli (ATCC BAA 1427) [4]; [27]): 100%
- MIC that inhibited greater than 90% growth (E. coli (ATCC BAA 1427) [4]; [19]): 15 µg/mL
- Average Growth Inhibition (%) (S. aureus (ATCC 6538) [5]; [20]): −30%
- Average Growth Inhibition (%) (S. aureus (ATCC 6538) [5]; [21]): 100%
- Average Growth Inhibition (%) (S. aureus (ATCC 6538) [5]; [22]): 101%
- Average Growth Inhibition (%) (S. aureus (ATCC 6538) [5]; [23]): 101%
- Average Growth Inhibition (%) (S. aureus (ATCC 6538) [5]; [24]): 99%
- Average Growth Inhibition (%) (S. aureus (ATCC 6538) [5]; [25]): 101%
- Average Growth Inhibition (%) (S. aureus (ATCC 6538) [5]; [26]): 101%
- Average Growth Inhibition (%) (S. aureus (ATCC 6538) [5]; [27]): 98%
- MIC that inhibited greater than 90% growth (S. aureus (ATCC 6538) [5]; [19]): 0.9375 µg/mL
- Average Growth Inhibition (%) [6, 20]: 4%
- Average Growth Inhibition (%) [6, 21]: 5%
- Average Growth Inhibition (%) [6, 22]: 7%
- Average Growth Inhibition (%) [6, 23]: 7%
- Average Growth Inhibition (%) [6, 24]: 8%
- Average Growth Inhibition (%) [6, 25]: 8%
- Average Growth Inhibition (%) [6, 26]: 28%
- Average Growth Inhibition (%) [6, 27]: 100%
- MIC that inhibited greater than 90% growth [6, 19]: 60 µg/mL
- MIC of BZK Alone (E. coli; alone): 15 µg/mL
- MIC of BZK in Presence of CHG (E. coli; in presence of CHG): 0.2344 µg/mL
- MIC of BZK Alone (P. aeruginosa; alone): 60 µg/mL
- MIC of BZK in Presence of CHG (P. aeruginosa; in presence of CHG): 7.5 µg/mL
- MIC of BZK Alone (S. aureus; alone): 0.9375 µg/mL
- MIC of BZK in Presence of CHG (S. aureus; in presence of CHG): 0.469 µg/mL
